The supplement of paper PMC8149375

Experiments:
Details in all cases: treatment: drug alone; 5 days
ACHN [1] = experiment: AUC of dose-response viability curve, drug alone (arbitrary (AUC of normalised viability)); higher = less growth inhibition
Method: (§1)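 Primary HTS: 8 RCC cell lines treated with 8 doses (up to 10 uM) of each library drug alone for 5 days; viability read by CellTiter-Glo and normalised to DMSO. GI50 was fitted with XLfit (4-parameter), AUC is the area under the dose-response curve, and minimum viability is the lowest fraction of DMSO viability across doses.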

CAKI-1 [2] = experiment: as above
Method: as §1

UO-31 [3] = experiment: as above
Method: as §1

TK-10 [4] = experiment: as above
Method: as §1

769-P [5] = experiment: as above
Method: as §1

SN12C [6] = experiment: as above
Method: as §1

786-O [7] = experiment: as above
Method: as §1

A498 [8] = experiment: as above
Method: as §1

ACHN [9] = experiment: GI50, drug alone; higher = less potent
Method: as §1

CAKI-1 [10] = experiment: GI50, drug alone; higher = less potent
Method: as §1

UO-31 [11] = experiment: GI50, drug alone; higher = less potent
Method: as §1

TK-10 [12] = experiment: GI50, drug alone; higher = less potent
Method: as §1

769-P [13] = experiment: GI50, drug alone; higher = less potent
Method: as §1

SN12C [14] = experiment: GI50, drug alone; higher = less potent
Method: as §1

786-O [15] = experiment: GI50, drug alone; higher = less potent
Method: as §1

A498 [16] = experiment: GI50, drug alone; higher = less potent
Method: as §1

ACHN [17] = experiment: minimum viability across doses, drug alone, relative to DMSO (fraction); higher = less growth inhibition
Method: as §1

CAKI-1 [18] = experiment: as above
Method: as §1

UO-31 [19] = experiment: as above
Method: as §1

TK-10 [20] = experiment: as above
Method: as §1

769-P [21] = experiment: as above
Method: as §1

SN12C [22] = experiment: as above
Method: as §1

786-O [23] = experiment: as above
Method: as §1

A498 [24] = experiment: as above
Method: as §1

GI50, drug alone (ACHN [9]) [µM]	GI50, drug alone (786-O [15]) [µM]	Structure (SMILES)	AUC of dose-response viability curve (ACHN [1])	AUC of dose-response viability curve (CAKI-1 [2])	AUC of dose-response viability curve (UO-31 [3])	AUC of dose-response viability curve (TK-10 [4])	AUC of dose-response viability curve (769-P [5])	AUC of dose-response viability curve (SN12C [6])	AUC of dose-response viability curve (786-O [7])	AUC of dose-response viability curve (A498 [8])	GI50, drug alone (CAKI-1 [10]) [µM]	GI50, drug alone (UO-31 [11]) [µM]	GI50, drug alone (TK-10 [12]) [µM]	GI50, drug alone (769-P [13]) [µM]	GI50, drug alone (SN12C [14]) [µM]	GI50, drug alone (A498 [16]) [µM]	minimum viability across doses (ACHN [17])	minimum viability across doses (CAKI-1 [18])	minimum viability across doses (UO-31 [19])	minimum viability across doses (TK-10 [20])	minimum viability across doses (769-P [21])	minimum viability across doses (SN12C [22])	minimum viability across doses (786-O [23])	minimum viability across doses (A498 [24])
> 10	> 10	C[C@]1(O)C[C@@H](c2nc(-c3ccc4ccc(-c5ccccc5)nc4c3)c3c(N)nccn32)C1 [Linsitinib (OSI-906)]	3.06	2.99	4.26	2.79	3.19	3.35	2.85	4.2	> 10	> 10	> 10	> 10	> 10	> 10	0.495	0.562	0.904	0.651	0.878	0.915	0.663	0.972
> 10	> 10	Cn1cnc(-c2cc3nccc(Oc4ccc(NC(=S)NC(=O)Cc5ccccc5)cc4F)c3s2)c1 [MGCD-265]	3.43	3.59	5.1	3.44	3.46	3.45	3.29	4.09	> 10	> 10	> 10	> 10	> 10	> 10	0.76	0.635	1.01	0.938	0.898	0.674	0.785	0.977
0.0672	2.53	Cl.Cl.NC1(c2ccc(-c3nc4ccn5c(=O)[nH]nc5c4cc3-c3ccccc3)cc2)CCC1 [MK-2206 dihydrochloride]	2.13	2.92	3.43	2.55	3.04	3.04	2.51	3.78	5.82	9.92	4.66	> 10	> 10	> 10	0.383	0.464	0.459	0.435	0.626	0.655	0.418	0.917
0.854	0.0304	O=C(O)[C@]1(Cc2cccc(Nc3nccs3)n2)CC[C@@H](Oc2cccc(Cl)c2F)CC1 [MK-5108 (VX-689)]	2.35	2.88	3.38	2.65	3.08	2.46	1.01	3.44	3.25	0.908	3.19	2.61	1.32	3.72	0.262	0.419	0.0125	0.404	0.179	0.154	0.00733	0.41
